Reference: paper PMC7467569, “The Progesterone 5β-Reductase/Iridoid Synthase Family: A Catalytic Reservoir for Specialized Metabolism across Land Plants” (ACS Chemical Biology, 2020)

How the values were obtained:
[1] = target: T1, Digitalis purpurea 2 (Digitalis purpurea, UniProt D2JSQ9); assay: NADPH consumption at […] nm; format: biochemical; conditions: 250 μM NADPH, 50 mM HEPES/NaOH pH 7.0, 100 mM NaCl, 25 °C, 0.1% tetrahydrofuran; read-out: 8-Oxogeranial / KM
T1 construct: gene P5BR2; synthetic gene in pOPINF, N-terminal His6 tag (no cleavage told), E. coli

[2] = target: T2, Catharanthus roseus 5 (PRISE5, ISY) (Catharanthus roseus, UniProt K7WDL7); assay: NADPH consumption at […] nm; format: biochemical; conditions: read-out: Progesterone / KM; 250 μM NADPH, 50 mM HEPES/NaOH pH 7.0, 100 mM NaCl, 25 °C, 1.5% ethanol
T2 construct: codon-optimized gene from earlier study in pOPINF, N-terminal His6 tag (no cleavage told), E. coli

Structure (SMILES) | Km [1] [µM] | Km [2] [µM]
C/C(C=O)=C\CC/C(C)=C/C=O [8-oxogeranial] | 17.7 ± 5.9 | –
CC(=O)[C@H]1CC[C@H]2[C@@H]3CCC4=CC(=O)CC[C@]4(C)[C@H]3CC[C@]12C [progesterone] | – | 28.8 ± 11.5
